In ChEMBL document CHEMBL1144122, “New scalaranes from the nudibranch Glossodoris atromarginata and its sponge prey” (1999):
Calls of active or inactive are those of the source. No cut-off for these calls is given here.

Key:
[1] = (§1) Cytotoxicity against human thyroid carcinoma cells assessed as mortality; type: functional
Homo sapiens = species: Homo sapiens; experiment: as §1; type: functional

Row | Structure (SMILES) | Activity [1] [%] | Activity (Homo sapiens)
1 | CC(=O)O[C@@H]1OC=C2[C@@H](OC(C)=O)C[C@H]3[C@]4(C)CC[C@H]5C(C)(C)CCC[C@]5(C)[C@H]4C[C@@H](O)[C@]3(C)[C@H]21 [HETERONEMIN] | 30 | 
2 | CC1(C)CCC[C@]2(C)[C@H]3C[C@@H](O)[C@]4(C)[C@@H]5C(=CC[C@H]4[C@]3(C)CC[C@@H]12)CO[C@H]5O |  | inactive
3 | CC1(C)CCC[C@]2(C)[C@H]3CC(=O)[C@]4(C)[C@@H]5C(=CC[C@H]4[C@]3(C)CC[C@@H]12)CO[C@H]5O | 25 | 
